Consider 14 compounds from US10806785B2, “Immunomodulator compounds and methods of use” (Incyte Corporation, priority 2016, dated 2020).

For the assay, the target named is PD-1/PD-L1 (Homo sapiens (Human), UniProt Q9NZQ7). The assay is described as follows: PD-1/PD-L1 binding assay (HTRF). The gist of the method: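 HTRF read-out (665/620 nm) after 60 min at 25 °C with 1 nM Eu anti-human IgG and 20 nM APC anti-His. Beforehand, inhibitors were preincubated 40 min with Fc-PD-1 (25-167, […] as listed) and His-PD-L1 (19-238, 10 nM) in PBS pH 7.4 with Tween-20, BSA, 1% DMSO; IC50 from log-concentration curve.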
PD-1/PD-L1, sequence (Q9NZQ7 19-238): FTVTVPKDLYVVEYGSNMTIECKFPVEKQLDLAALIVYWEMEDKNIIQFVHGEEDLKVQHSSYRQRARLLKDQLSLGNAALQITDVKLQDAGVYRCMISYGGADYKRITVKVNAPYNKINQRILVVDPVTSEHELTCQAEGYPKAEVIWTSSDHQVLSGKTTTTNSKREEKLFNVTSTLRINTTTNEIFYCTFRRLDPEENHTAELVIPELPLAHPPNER
A word on the IC50: it is the midpoint of a concentration-inhibition curve. A higher IC50 goes with weaker potency in that assay. On to `Cc1c(NC(=O)c2nc3c(n2C)CCN(C2CCN(S(C)(=O)=O)CC2)C3)cccc1-c1cccc(NC(=O)c2nc3c(n2C)CCN(C)C3)c1Cl` [Example 28, N-(2-chloro-2′-methyl-3′-(1-methyl-5-(1-(methylsulfonyl)piperidin-4-yl)-4,5,6,7-tetrahydro-1H-imidazo[4,5-c]pyridine-2-carboxamido)biphenyl-3-yl)-1,5-dimethyl-4,5,6,7-tetrahydro-1H-imidazo[4,5-c]pyridine-2-carboxamide], for which the IC50 is not above 10 nM.
Next, `Cc1c(NC(=O)c2nc3c(n2C)CCN(C2CCOCC2)C3)cccc1-c1cccc(NC(=O)c2nc3c(n2C)CCN(C)C3)c1Cl` [Example 29, N-(2-chloro-2′-methyl-3′-(1-methyl-5-(tetrahydro-2H-pyran-4-yl)-4,5,6,7-tetrahydro-1H-imidazo[4,5-c]pyridine-2-carboxamido)biphenyl-3-yl)-1,5-dimethyl-4,5,6,7-tetrahydro-1H-imidazo[4,5-c]pyridine-2-carboxamide]: not above 10 nM.
As for `Cc1c(NC(=O)c2nc3c(n2C)CCN(CC2CCOCC2)C3)cccc1-c1cccc(NC(=O)c2nc3c(n2C)CCN(C)C3)c1Cl` [Example 30, N-(2-chloro-2′-methyl-3′-(1-methyl-5-((tetrahydro-2H-pyran-4-yl)methyl)-4,5,6,7-tetrahydro-1H-imidazo[4,5-c]pyridine-2-carboxamido)biphenyl-3-yl)-1,5-dimethyl-4,5,6,7-tetrahydro-1H-imidazo[4,5-c]pyridine-2-carboxamide], the IC50 is not above 10 nM.
`Cc1c(NC(=O)c2nc3c(n2C)CCN(CC2(CO)CC2)C3)cccc1-c1cccc(NC(=O)c2nc3c(n2C)CCN(C)C3)c1Cl` [Example 31, N-(2′-chloro-3′-(1,5-dimethyl-4,5,6,7-tetrahydro-1H-imidazo[4,5-c]pyridine-2-carboxamido)-2-methylbiphenyl-3-yl)-5-((1-(hydroxymethyl)cyclopropyl)methyl)-1-methyl-4,5,6,7-tetrahydro-1H-imidazo[4,5-c]pyridine-2-carboxamide]: the IC50 is not above 10 nM.
Next, `Cc1c(NC(=O)c2nc3c(n2C)CCN(C[C@H](O)CO)C3)cccc1-c1cccc(NC(=O)c2nc3c(n2C)CCN(C)C3)c1Cl` [Example 32, (S)—N-(2′-chloro-3′-(1,5-dimethyl-4,5,6,7-tetrahydro-1H-imidazo[4,5-c]pyridine-2-carboxamido)-2-methylbiphenyl-3-yl)-5-(2,3-dihydroxypropyl)-1-methyl-4,5,6,7-tetrahydro-1H-imidazo[4,5-c]pyridine-2-carboxamide]: not above 10 nM; `Cc1c(NC(=O)c2nc3c(n2C)CCN(CC(=O)O)C3)cccc1-c1cccc(NC(=O)c2nc3c(n2C)CCN(C)C3)c1Cl` [Example 33, 2-(2-(2′-chloro-3′-(1,5-dimethyl-4,5,6,7-tetrahydro-1H-imidazo[4,5-c]pyridine-2-carboxamido)-2-methylbiphenyl-3-ylcarbamoyl)-1-methyl-6,7-dihydro-1H-imidazo[4,5-c]pyridin-5(4H)-yl)acetic Acid]: not above 10 nM; `CC(=O)N1CCC(N2CCc3c(nc(C(=O)Nc4cccc(-c5cccc(NC(=O)c6nc7c(n6C)CCN(C)C7)c5Cl)c4C)n3C)C2)CC1` [Example 34, 5-(1-acetylpiperidin-4-yl)-N-(2′-chloro-3′-(1,5-dimethyl-4,5,6,7-tetrahydro-1H-imidazo[4,5-c]pyridine-2-carboxamido)-2-methylbiphenyl-3-yl)-1-methyl-4,5,6,7-tetrahydro-1H-imidazo[4,5-c]pyridine-2-carboxamide]: not above 10 nM.
Next, `Cc1c(NC(=O)c2nc3c(n2C)CCN(C2CCC(C)(C(=O)O)CC2)C3)cccc1-c1cccc(NC(=O)c2nc3c(n2C)CCN(C)C3)c1Cl` (centres unmarked) [Example 35, 4-(2-(2′-chloro-3′-(1,5-dimethyl-4,5,6,7-tetrahydro-1H-imidazo[4,5-c]pyridine-2-carboxamido)-2-methylbiphenyl-3-ylcarbamoyl)-1-methyl-6,7-dihydro-1H-imidazo[4,5-c]pyridin-5(4H)-yl)-1-methylcyclohexanecarboxylic acid]: not above 10 nM; `Cc1c(NC(=O)c2nc3c(n2C)CCN(CCCNS(C)(=O)=O)C3)cccc1-c1cccc(NC(=O)c2nc3c(n2C)CCN(C)C3)c1Cl` [Example 36, N-(2-chloro-2′-methyl-3′-(1-methyl-5-(3-(methylsulfonamido)propyl)-4,5,6,7-tetrahydro-1H-imidazo[4,5-c]pyridine-2-carboxamido)biphenyl-3-yl)-1,5-dimethyl-4,5,6,7-tetrahydro-1H-imidazo[4,5-c]pyridine-2-carboxamide]: not above 10 nM; `CN1CCc2c(nc(C(=O)Nc3cccc(-c4cccc(NC(=O)c5nc6c(n5C)CCN(CCO)C6)c4Cl)c3C#N)n2C)C1` [Example 38, N-(2-chloro-2′-cyano-3′-(1,5-dimethyl-4,5,6,7-tetrahydro-1H-imidazo[4,5-c]pyridine-2-carboxamido)biphenyl-3-yl)-5-(2-hydroxyethyl)-1-methyl-4,5,6,7-tetrahydro-1H-imidazo[4,5-c]pyridine-2-carboxamide]: not above 10 nM.
The figure for `C[C@H](O)CN1CCc2c(nc(C(=O)Nc3cccc(-c4cccc(NC(=O)c5nc6c(n5C)CCN(C)C6)c4C#N)c3Cl)n2C)C1` [Example 39, (S)—N-(2-chloro-2′-cyano-3′-(1,5-dimethyl-4,5,6,7-tetrahydro-1H-imidazo[4,5-c]pyridine-2-carboxamido)biphenyl-3-yl)-5-(2-hydroxypropyl)-1-methyl-4,5,6,7-tetrahydro-1H-imidazo[4,5-c]pyridine-2-carboxamide] is not above 10 nM.
The compound `C[C@@H](O)CN1CCc2c(nc(C(=O)Nc3cccc(-c4cccc(NC(=O)c5nc6c(n5C)CCN(C)C6)c4C#N)c3Cl)n2C)C1` [Example 40, (R)—N-(2-chloro-2′-cyano-3′-(1,5-dimethyl-4,5,6,7-tetrahydro-1H-imidazo[4,5-c]pyridine-2-carboxamido)biphenyl-3-yl)-5-(2-hydroxypropyl)-1-methyl-4,5,6,7-tetrahydro-1H-imidazo[4,5-c]pyridine-2-carboxamide] yielded an IC50 not above 10 nM.
The figure for `Cc1c(NC(=O)c2nc3c(n2C)CCN(C[C@H](C)O)C3)cccc1-c1cccc(NC(=O)c2nc3c(n2C)CCNC3)c1Cl` [Example 41, (S)—N-(2′-chloro-2-methyl-3′-(1-methyl-4,5,6,7-tetrahydro-1H-imidazo[4,5-c]pyridine-2-carboxamido)-[1,1′-biphenyl]-3-yl)-5-(2-hydroxypropyl)-1-methyl-4,5,6,7-tetrahydro-1H-imidazo[4,5-c]pyridine-2-carboxamide] is not above 10 nM; for `Cc1c(NC(=O)c2nc3c(n2C)CCN(C[C@H](C)O)C3)cccc1-c1cccc(NC(=O)c2nc3c(n2C)CCN(CCO)C3)c1Cl` [Example 42, (S)—N-(2′-chloro-3′-(5-(2-hydroxyethyl)-1-methyl-4,5,6,7-tetrahydro-1H-imidazo[4,5-c]pyridine-2-carboxamido)-2-methylbiphenyl-3-yl)-5-(2-hydroxypropyl)-1-methyl-4,5,6,7-tetrahydro-1H-imidazo[4,5-c]pyridine-2-carboxamide] it is not above 10 nM.
